# Data as given in patent US11208497B2, “Antibodies comprising C-terminal light chain polypeptide extensions and conjugates and methods of use thereof” (ZYMEWORKS INC., priority 2013, dated 2021).
# Tested on: CD30 antigen positive Karpas 299 cells
# Assay: In vitro cell proliferation assay, Karpas 299 cells (Example 18)
# Type: cell-based
substance,measurement,value
"B-MCvcPABC-MMAE: Brentuximab (B) without light chain extension conjugated to MCvcPABC-MMAE, DAR 3.5 [reference compound]",EC50,8 pM
